Test results reported in patent publication US20210070747A1, “2(1H)-QUINOLINONE DERIVATIVE” (priority 2017, published 2021).
Values after ≈ are worked out from the molar mass of the structure shown. Where two headings read alike, the source gives them in different places.

Tests used:
E. coli DNA gyrase = biological target: T1, E. coli DNA gyrase (Escherichia coli, UniProt P0AES6); assay: Test for evaluating the activity of inhibiting E. coli DNA gyrase enzyme (Method 2, supercoiling, recombinant gyrA/gyrB complex); type: biochemical
T1 construct: made in house; host or cells: E. coli BL21 (DE3)
Procedure: The enzymatic activity of E. coli DNA gyrase was measured by a method comprising reacting DNA gyrase and its substrate, relaxed pBR322 (Inspiralis), in the presence of ATP and detecting the post-reaction supercoiled pBR322/relaxed pBR322 ratio with H19.
Specifically, to 1 ng/μL of relaxed pBR322, E. coli DNA gyrase enzyme (the gyrA or gyrB gene was incorporated into the pET15b plasmid and after expressing them in E. coli BL21 (DE3), purification was performed using a Ni-NTA column to form a complex at room temperature) was added at a final concentration of 0.135 nmol/mL and the mixture was incubated for 60 minutes at room temperature. This reaction was carried out in 20 mmol/L tris-HCl buffered solution (pH 8.0) comprising 0.5 mmol/L ATP, 0.005% bridge 35, 35 mmol/L ammonium acetate, 8 mmol/L magnesium chloride, 4.6% glycerol, and 1 mmol/L dithiothreitol. To the reaction mixture, H19 was added to bring the reaction to an end; thereafter, the supercoiled pBR322/relaxed pBR322 ratio was detected at excitation wavelength/emission wavelength=485 nm/535 nm. An inhibition curve was obtained by allowing the analyte compound to be present at varying concentrations during the reaction described above.

E. Coli ATCC 25922 = assay: Test for evaluating antibacterial activity (E. coli), broth microdilution MIC; type: cell-based; settings: Escherichia coli, ATCC25922; 35° C., 18 hours, cation-adjusted Mueller-Hinton medium
Procedure: Minimum inhibitory concentration (MIC) was measured using the broth microdilution method described below in accordance with a modification of the standard method specified by CLSI (Clinical & Laboratory Standards Institute).
(§1) Bacterial cells under test were cultured overnight on a heart infusion agar medium, scraped off and suspended at a concentration equivalent to McFarland 0.5 turbidity; the suspension thus obtained was diluted 10 folds to give a liquid inoculum. The inoculum (0.005 mL) was inoculated on a cation-adjusted Mueller-Hinton medium containing the analyte compound and cultured at 35° C. for 18 hours. A minimum drug concentration at which no bacterial growth was macroscopically visible was designated MIC.

[1] = system: N. gonorrhoeae ATCC 49226; assay: Test for evaluating antibacterial activity (N. gonorrhoeae), broth microdilution MIC; type: cell-based; settings: Neisseria gonorrhoeae, ATCC49226; 35° C., 24 hours, gonococcal broth
Procedure: Minimum inhibitory concentration (MIC) was measured using the broth microdilution method described below in accordance with a modification of the method of Geers et al. (Antimicrob. Agents. Chemother. (1989), 33, 233-234).
After sterilization, BD. Difco supplement C was added to give a final concentration of 1%, whereby a gonococcal broth was prepared.
as §1, with “chocolate II” for “heart infusion”, “5” for “10”, “gonococcal broth” for “cation-adjusted Mueller-Hinton medium”, “24” for “18”

[2] = Method 2, read-out: E. Coli Gyrase supercoiling IC50

Compound | IC50 (E. coli DNA gyrase; [2]) [nM] | MIC (E. Coli ATCC 25922) [µg/mL] | MIC [1] [µg/mL] | IC50 (E. coli DNA gyrase) [nM]
CCc1cccc2cc(C(=O)Nc3ccc(C(=O)O)cc3)c(=O)[nH]c12 [Example 161, 4-[(8-ethyl-2-oxo-1,2-dihydroquinoline-3-carbonyl)amino]benzoic acid] | 2230 | > 32 | > 4 | 
CNc1cc(F)cc2cc(C(=O)N[C@H]3CC[C@H](C(=O)O)CC3)c(=O)[nH]c12 [Example 116, trans-4-{[6-fluoro-8-(methylamino)-2-oxo-1,2-dihydroquinoline-3-carbonyl]amino} cyclohexane-1-carboxylic acid] |  | > 64 | > 1 | 137
CNc1cc(F)cc2c(O)c(C(=O)Nc3ccc(C(=O)NS(=O)(=O)N(C)C)cc3CN3CCCCC3)c(=O)[nH]c12 [Example 164, N-{4-[(dimethyl-sulfamoyl)carbamoyl]-2-[(piperidine-1-yl)methyl]phenyl}-6-fluoro-4-hydroxy-8-(methylamino)-2-oxo-1,2-dihydroquinoline-3-carboxamide] | 4.44 | 64 (≈ 111 µM) | 0.12 (≈ 0.209 µM) | 
CNc1cc(F)cc2cc(C(=O)Nc3cnccc3CN(C)C3CCCCC3)c(=O)[nH]c12 [Example 95, N-(4-{[cyclohexyl(methyl)amino]methyl}pyridine-3-yl)-6-fluoro-8-(methylamino)-2-oxo-1,2-dihydroquinoline-3-carboxamide] |  | > 16 | 1 (≈ 2.29 µM) | 2.16
CNc1cc(F)cc2cc(C(=O)Nc3ccc(-c4noc(=O)[nH]4)cc3)c(=O)[nH]c12 [Example 144, 6-fluoro-8-(methylamino)-2-oxo-N-[4-(5-oxo-4,5-dihydro-1,2,4-oxadiazole-3-yl)phenyl]-1,2-dihydroquinoline-3-carboxamide] | 0.48 | > 8 | 0.004 (≈ 0.0101 µM) | 
CNc1cc(F)cc2cc(C(=O)Nc3ccc(C4OC(=O)NC4=O)cc3)c(=O)[nH]c12 (stereo not shown) [Example 159, N-[4-(2,4-Dioxo-1,3-oxazolidin-5-yl)phenyl]-6-fluoro-8-(methylamino)-2-oxo-1,2-dihydroquinoline-3-carboxamide] | 1.08 | > 16 | 0.002 (≈ 0.00487 µM) | 
CNc1cc(F)cc2c(NCCCN)c(C(=O)Nc3ccc(C(=O)O)cc3)c(=O)[nH]c12.O=CO [Example 132, 4-({4-[(3-aminopropyl)amino]-6-fluoro-8-(methylamino)-2-oxo-1,2-dihydroquinoline-3-carbonyl}amino)benzoic acid-formate] |  | > 8 | 0.25 | 0.52
CNc1cccc2cc(C(=O)Nc3cnc(CO)nc3)c(=O)[nH]c12 [Example 37, N-[2-(hydroxymethyl)pyrimidine-5-yl]-8-(methylamino)-2-oxo-1,2-dihydroquinoline-3-carboxamide] | 9.97 | > 4 | 1 (≈ 3.07 µM) | 
CNc1cc(F)cc2cc(C(=O)Nc3ccc(C(O)C(N)=O)cc3)c(=O)[nH]c12 (stereo not shown) [Example 158, N-[4-(2-amino-1-hydroxy-2-oxoethyl)phenyl]-6-fluoro-8-(methylamino)-2-oxo-1,2-dihydroquinoline-3-carboxamide] | 7.78 | > 16 | 0.03 (≈ 0.0781 µM) | 
CNc1cc(F)cc2cc(C(=O)Nc3cnccc3CO)c(=O)[nH]c12 [Example 91, 6-Fluoro-N-[4-(hydroxymethyl)pyridin-3-yl]-8-(methylamino)-2-oxo-1,2-dihydroquinoline-3-carboxamide] | 18.6 | > 16 | 1 (≈ 2.92 µM) | 
CNc1cc(F)cc2c(O)c(C(=O)Nc3ccccc3)c(=O)[nH]c12 [Example 129, 6-fluoro-4-hydroxy-8-(methylamino)-2-oxo-N-phenyl-1,2-dihydroquinoline-3-carboxamide] | 387 | > 16 | 1 (≈ 3.06 µM) | 
CCc1cc(C(=O)O)ccc1NC(=O)c1cc2cc(F)cc(NC)c2[nH]c1=O [Example 93, 3-ethyl-4-{[6-fluoro-8-(methylamino)-2-oxo-1,2-dihydraquinoline-3-carbonyl]amino} benzoic acid] | 31.8 | > 2 | 0.25 (≈ 0.652 µM) | 
CNc1cccc2cc(C(=O)NCCc3nc(O)cc(O)n3)c(=O)[nH]c12 [Example 32, N-[2-(4,6-dihydroxy-pyrimidine-2-yl)ethyl]-8-(methylamino)-2-oxo-1,2-dihydroquinoline-3-carboxamide] | 25.3 | > 64 | > 4 | 
CNc1cc(F)cc2c(O)c(C(=O)Nc3ccc(C(=N)N)cc3)c(=O)[nH]c12 [Example 150, N-(4-Carbamimidoylphenyl)-6-fluoro-4-hydroxy-8-(methylamino)-2-oxo-1,2-dihydroquinoline-3-carboxamide] | 89.3 | > 16 | 0.03 (≈ 0.0812 µM) | 
CNc1cc(F)cc2cc(C(=O)Nc3c(C)cc(C(=O)O)cc3CN(C)C3CCCCC3)c(=O)[nH]c12 [Example 99, 3-{[cyclohexyl (methyl)amino]methyl}-4-{[6-fluoro-8-(methylamino)-2-oxo-1,2-dihydroquinoline-3-carbonyl]amino}-5-methylbenzoic acid] | 0.7 | 64 (≈ 129 µM) | 0.25 (≈ 0.505 µM) | 
CNc1cc(F)cc2cc(C(=O)Nc3ccc(C(=O)O)cc3CN(CCN)C3CCCCC3)c(=O)[nH]c12.O=C(O)C(F)(F)F [Example 110, 3-{[(2-aminoethyl)(cyclohexyl)amino]methyl}-4-{[6-fluoro-8-(methylamino)-2-oxo-1,2-dihydroquinoline-3-carbonyl]amino}benzoic acid-trifluoroacetate] |  | > 64 | > 1 | 3.68
CNc1cc(F)cc2cc(C(=O)Nc3ccc(-c4nnn[nH]4)cc3)c(=O)[nH]c12 [Example 149, 6-fluoro-8-(methylamino)-2-oxo-N-[4-(1H-tetrazole-5-yl)phenyl]-1,2-dihydroquinoline-3-carboxamide] | 0.55 | > 8 | 0.03 (≈ 0.0791 µM) | 
CNc1cc(F)cc2cc(C(=O)Nc3ccc(C(=O)NS(C)(=O)=O)cc3)c(=O)[nH]c12 [Example 145, 6-fluoro-N-{4-[(methanesulfonyl)carbamoyl]phenyl}-8-(methylamino)-2-oxo-1,2-dihydroquinoline-3-carboxamide] | 0.19 | > 32 | 0.06 (≈ 0.139 µM) | 
CNc1cc(F)cc2cc(C(=O)Nc3ccc(C(N)=O)cc3CN(C)C3CCCCC3)c(=O)[nH]c12 [Example 121, N-(4-carbamoyl-2-{[cyclohexyl(methyl)amino]methyl}phenyl)-6-fluoro-8-(methylamino)-2-oxo-1,2-dihydroquinoline-3-carboxamide] | 2.48 | > 32 | 0.25 (≈ 0.521 µM) | 
CNc1cc(F)cc2cc(C(=O)NCCc3ccc(O)c(OC)c3)c(=O)[nH]c12 [Example 81, 6-fluoro-N-[2-(4-hydroxy-3-methoxyphenyl)ethyl]-8-(methylamino)-2-oxo-1,2-dihydroquinoline-3-carboxamide] | 110 |  | > 1 | 
CNc1cccc2cc(C(=O)NCc3ccc(C(=O)O)cc3)c(=O)[nH]c12 [Example 6, 4-({[8-(methylamino)-2-oxo-1,2-dihydroquinoline-3-carbonyl]amino}methyl)benzoic acid] |  | > 64 | 4 (≈ 11.4 µM) | 
CNc1cc(F)cc2c(NCCN)c(C(=O)Nc3ccc(C(=O)O)cc3)c(=O)[nH]c12.O=CO [Example 131, 4-([4-[(2-Aminoethyl)amino]-6-fluoro-8-(methylamino)-2-oxo-1,2-dihydroquinoline-3-carbonyl]amino)benzoic Acid-Formate] |  | > 16 |  | 0.94
CNc1cccc2cc(C(=O)NCc3cccc(C(=O)O)c3)c(=O)[nH]c12 [Example 168, 3-({[8-(methylamino)-2-oxo-1,2-dihydroquinoline-3-carbonyl]amino}methyl)benzoic acid] | 1670 | > 32 |  | 
CNc1cc(F)cc2cc(C(=O)Nc3cnc(C(=O)NCCCN4CCOCC4)nc3)c(=O)[nH]c12 [Example 82, 6-fluoro-8-(methylamino)-N-(2-{[3-(morpholine-4-yl)propyl]carbamoyl}pyrimidine-5-yl)-2-oxo-1,2-dihydroquinoline-3-carboxamide] | 0.47 | 0.25 (≈ 0.517 µM) |  | 
